# Experimental data as given in patent publication US20150246093A1, “ORAL FORMULATIONS OF ANGIOTENSIN” (TARIX PHARMACEUTICALS LTD., priority 2012, published 2015).
# Several values for one entry are separate records, joined by “and”; a condition that tells them apart may be missing. Identical values can stand only once. Like-named read-outs stand apart in the source and are kept apart here.
# Experiment: Pharmacokinetics after subcutaneous (SC) administration of angiotensin (1-7) in PBS, plasma LC-MS
# Assay type: in vivo, female Sprague-Dawley rats
# Conditions: for AUC(0-t): read-out: AUC0-90 (converted)
# Protocol: Initially, a baseline pharmacokinetic profile in female Sprague-Dawley rats was obtained by subcutaneous (SC) administration of angiotensin (1-7) in phosphate buffered saline (PBS). […]
# After extraction, the samples were then transferred to ice-cold tubes containing a protease inhibitor cocktail. The samples were kept on ice until they were centrifuged at 4° C. to obtain plasma. The plasma supernatants were then frozen −70° C. until analysis using an LC-MS assay.
# Table 1 summarized exemplary individual baseline A(1-7) levels achieved at the designated time points and the non-compartmental PK values. Three rats were administered 0.3 mL of 10 mg/mL A(1-7) as a subcutaneous injection. The pharmacokinetics of A(1-7) were determined using a non-compartmental model, where individual pharmacokinetics were determined. The mean concentration for each time point was calculated and the PK values for these mean values were estimated. The Tmax was achieved approximately 10 to 90 minutes after administration. Half-lives are approximately 15 minutes for this treatment group. Total mean A(1-7) exposure over the observation period was 614 ng*min/mL with a range of 585 to 656 ng*min/mL.
# [1] = SC 0.3 mL of 10 mg/mL A(1-7) in PBS, individual rats
compound,measurement,setting,value
"CC[C@H](C)[C@H](NC(=O)[C@H](Cc1ccc(O)cc1)NC(=O)[C@@H](NC(=O)[C@H](CCCNC(=N)N)NC(=O)[C@@H](N)CC(=O)O)C(C)C)C(=O)N[C@@H](Cc1c[nH]cn1)C(=O)N1CCC[C@H]1C(=O)O [Angiotensin (1-7), Asp^1-Arg^2-Val^3-Tyr^4-Ile^5-His^6-Pro^7]",Total mean A(1-7) exposure over the observation period,"0.3 mL of 10 mg/mL A(1-7) subcutaneous injection, three rats",614 ng·min/mL
same,AUC0-90,[1],598.1 ng·min/mL and 656.1 ng·min/mL
same,Cmax,[1],15.7 ng/mL and 17.4 ng/mL
same,Half-Life,[1],15.58 min
same,Angiotensin (1-7) concentration,"SC 0.3 mL of 10 mg/mL A(1-7) in PBS, time point 0 min (before injection), individual rats",0.121 ng/mL and 10.2 ng/mL and 1.41 ng/mL
same,Angiotensin (1-7) concentration,"SC 0.3 mL of 10 mg/mL A(1-7) in PBS, time point 5 min, individual rats",0.120 ng/mL and 7.47 ng/mL and 4.37 ng/mL
same,Angiotensin (1-7) concentration,"SC 0.3 mL of 10 mg/mL A(1-7) in PBS, time point 10 min, individual rats",18.6 ng/mL and 0.94 ng/mL and 1.09 ng/mL
same,Angiotensin (1-7) concentration,"SC 0.3 mL of 10 mg/mL A(1-7) in PBS, time point 20 min, individual rats",6.25 ng/mL and 15.7 ng/mL and 5.71 ng/mL
same,Angiotensin (1-7) concentration,"SC 0.3 mL of 10 mg/mL A(1-7) in PBS, time point 40 min, individual rats",15.30 ng/mL and 6.38 ng/mL and 4.47 ng/mL
same,Angiotensin (1-7) concentration,"SC 0.3 mL of 10 mg/mL A(1-7) in PBS, time point 60 min, individual rats",1.03 ng/mL and 2.65 ng/mL and 7.46 ng/mL
same,Angiotensin (1-7) concentration,"SC 0.3 mL of 10 mg/mL A(1-7) in PBS, time point 90 min, individual rats",1.14 ng/mL and 6.59 ng/mL and 17.4 ng/mL
same,level at 0 h,"female, Sprague-Dawley, rat, plasma, 3 mg, SC 0.3 mL of 10 mg/mL A(1-7) in PBS, time point 0 min (before injection), Average, read-out: Angiotensin (1-7) concentration",4.5 ng/mL
same,level at 5 min,"female, Sprague-Dawley, rat, plasma, 3 mg, SC 0.3 mL of 10 mg/mL A(1-7) in PBS, time point 5 min, Average, read-out: Angiotensin (1-7) concentration",3.99 ng/mL
same,level at 10 min,"female, Sprague-Dawley, rat, plasma, 3 mg, SC 0.3 mL of 10 mg/mL A(1-7) in PBS, time point 10 min, Average, read-out: Angiotensin (1-7) concentration",6.88 ng/mL
same,level at 20 min,"female, Sprague-Dawley, rat, plasma, 3 mg, SC 0.3 mL of 10 mg/mL A(1-7) in PBS, time point 20 min, Average, read-out: Angiotensin (1-7) concentration",9.22 ng/mL
same,level at 40 min,"female, Sprague-Dawley, rat, plasma, 3 mg, SC 0.3 mL of 10 mg/mL A(1-7) in PBS, time point 40 min, Average, read-out: Angiotensin (1-7) concentration",8.72 ng/mL
same,level at 1 h,"female, Sprague-Dawley, rat, plasma, 3 mg, SC 0.3 mL of 10 mg/mL A(1-7) in PBS, time point 60 min, Average, read-out: Angiotensin (1-7) concentration",3.71 ng/mL
same,level at 1.5 h,"female, Sprague-Dawley, rat, plasma, 3 mg, SC 0.3 mL of 10 mg/mL A(1-7) in PBS, time point 90 min, Average, read-out: Angiotensin (1-7) concentration",8.38 ng/mL
same,Tmax,"female, Sprague-Dawley, rat, plasma, sc, 3 mg, 0.3 mL of 10 mg/mL A(1-7) subcutaneous injection, three rats, range over the group, read-out: Tmax after administration",10 to 90 min
same,Half-Life,"female, Sprague-Dawley, rat, plasma, sc, 3 mg, 0.3 mL of 10 mg/mL A(1-7) subcutaneous injection, three rats, read-out: Half-lives",~15 min
same,AUC(0-t),"female, Sprague-Dawley, rat, plasma, sc, 3 mg, SC 0.3 mL of 10 mg/mL A(1-7) in PBS, Average (PK value of the mean concentrations)",10.2 ng·h/mL
same,Cmax,"female, Sprague-Dawley, rat, plasma, sc, 3 mg, SC 0.3 mL of 10 mg/mL A(1-7) in PBS, Average (PK value of the mean concentrations), read-out: Cmax",9.2 ng/mL
same,Tmax,"female, Sprague-Dawley, rat, plasma, sc, 3 mg, SC 0.3 mL of 10 mg/mL A(1-7) in PBS, Average (PK value of the mean concentrations), read-out: Tmax (converted)",20 min
same,AUC(0-t),"female, Sprague-Dawley, rat, plasma, sc, 3 mg, SC 0.3 mL of 10 mg/mL A(1-7) in PBS, Mean PK Value (average of individual PK parameters)",10.2 ng·h/mL
same,Cmax,"female, Sprague-Dawley, rat, plasma, sc, 3 mg, SC 0.3 mL of 10 mg/mL A(1-7) in PBS, Mean PK Value (average of individual PK parameters), read-out: Cmax",17.2 ng/mL
same,Half-Life,"female, Sprague-Dawley, rat, plasma, sc, 3 mg, SC 0.3 mL of 10 mg/mL A(1-7) in PBS, Mean PK Value (average of individual PK parameters), read-out: Half-Life",15.1 min
same,Tmax,"female, Sprague-Dawley, rat, plasma, sc, 3 mg, SC 0.3 mL of 10 mg/mL A(1-7) in PBS, Mean PK Value (average of individual PK parameters), read-out: Tmax (converted)",40 min
same,AUC(0-t),"female, Sprague-Dawley, rat, plasma, sc, 3 mg, SC 0.3 mL of 10 mg/mL A(1-7) in PBS, individual rats",9.72 ng·h/mL
same,Cmax,"female, Sprague-Dawley, rat, plasma, sc, 3 mg, SC 0.3 mL of 10 mg/mL A(1-7) in PBS, individual rats, read-out: Cmax",18.6 ng/mL
same,Half-Life,"female, Sprague-Dawley, rat, plasma, sc, 3 mg, SC 0.3 mL of 10 mg/mL A(1-7) in PBS, individual rats, read-out: Half-Life",15 min
